Laboratory results reported in a melting point compilation (Tetko et al.; mined from patent text by program, amines drawn as free bases though some values may be those of a salt).

| SMILES | melting point [°C] |
| --- | --- |
| CC1CC=CC2C(=O)OC(=O)C12 (configuration not stated) | 55 |
| CC(=O)O[C@H]1[C@H](OC(C)=O)CSC(Oc2ccc3c(ccn3C(=O)OC(C)(C)C)c2)[C@@H]1OC(C)=O (some centres not stated) | 58 to 62 |
| COc1c(N2CCC(O)C(CC(C)C)C2)c(F)cc2c(=O)c(C(=O)O)cn(C3CC3)c12 (configuration not stated) | 190 to 192 |
| O=C(c1ccc(O)cc1)c1c(-c2ccccc2)ccc2ccccc12 | 204 to 205 |
| CCn1ncc2c(NCC3CCCCC3)c3cccc(Br)c3nc21 | 160 to 162 |
| Fc1ccccc1C1=NCc2cncnc2-c2ccc(Cl)cc21 | 122 to 124 |
| Cc1cc(C(C)(C)CC(C)(C)C)c(O)c(C)c1CC(N)=O | 179 to 181 |
| CCCCCCCCCCCCCCCCCc1nc(C(C)N)c[nH]1 (configuration not stated) | 38 to 40 |
| CC(C)c1ccc(C(=O)C2=C(O)C(=O)N(c3ccc(Sc4ccc([N+](=O)[O-])cc4)nn3)C2c2ccc(OC(F)(F)F)cc2)cc1 (configuration not stated) | 194 to 209 |
| O=CNc1ccc(OCCNCC(O)c2ccc(O)cc2)cc1 (configuration not stated) | 164 to 165 |
| OC1(c2cccc(C(F)(F)F)c2)CCN(CCCC2(c3ccc(F)cc3F)OCCO2)CC1 | 90 to 93 |
| OC1CCN(c2ccccc2)C12CCN(C1CC3CCCCCC3C1)CC2 (configuration not stated) | 219 |
| COc1cc(C(=O)NS(=O)(=O)c2ccccc2)ccc1CN1CCOc2ccc(NC(=O)CC3CCCC3)cc21 | 190 to 192 |
| Cn1c(=O)[nH]c2cc(Cl)cc(Cl)c2c1=O | 247 to 250 |
| CCCCCN(CCCCC)C(=O)C(Cc1ccc(OCC(=O)O)c(C(=O)O)c1)NC(=O)C(Cc1ccccc1)NC(=O)OC(C)(C)C (configuration not stated) | 87 to 90 |
| COc1ccc(C(=O)c2ccc(OCc3nc(-c4cccc(OS(C)(=O)=O)c4)oc3C)cc2)c(OC(C)(C)C(=O)O)c1 | 182 to 183 |
| CC(C)(C)OC(=O)[C@H](CCSCc1cn(C(c2ccccc2)(c2ccccc2)c2ccccc2)cn1)NC(=O)OCc1ccccc1 | 183 to 185 |
| CCCc1c(OCCCCCc2c(Cl)c(Cl)c(Cl)c(OC)c2OC)ccc(C(=O)O)c1O | 148 to 150 |
| CC(C)(C)c1cc(CCCO)cc(-n2nc3ccc(S(=O)(=O)c4ccccc4)cc3n2)c1O | 159 to 161 |
| CC1(C)C2CCC(C2)C1CCC(O)CCC1C2CCC(C2)C1(C)C (configuration not stated) | 55 to 56 |
| CC1CCc2ccc(NC(=O)C(F)(F)F)c3c(=O)c(C(=O)O)cn1c23 (configuration not stated) | 301 to 303 |
| O=C(NCc1ccc(Cl)cc1)c1cnc2cc(Cl)ccc2c1O | 237 to 239 |
| CC1(C)CCC[C@]2(C)OC(=O)C[C@H]12 | 74 to 75 |
| COC(=O)[C@H]1C[C@H](n2c(Br)c(-c3cccc(OCc4ccccc4)c3)c3c(N)ncnc32)C1 | 124 to 125 |
| CCOC(=O)COc1cccc(NC(=O)NC2N=C(c3ccccc3F)c3ccccc3N(CC(=O)N3CC4CCC(CC4)C3)C2=O)c1 (racemic) | 156 to 158 |

More lines, now with the values ahead:

| melting point [°C] | SMILES |
| --- | --- |
| 118 to 120 | Nc1cccc(C(=O)Nc2ccccc2)c1 |
| 98 | COc1ccc(Nc2cc(Cl)ccc2[N+](=O)[O-])cc1 |
| 73 | COc1cccc2c1CCn1cc(-c3ccccc3)nc1C2OC1CCN(C)CC1 (configuration not stated) |
| 184 to 185 | CC(=O)Nc1ccc(O)c(C)c1C |
| 145 to 146 | OCc1ccc(OCc2csc(-c3ccccc3)n2)cc1 |
| 147 to 148 | CC(C)(C)c1cc(-c2csc(CNc3ccccc3)n2)cc(C(C)(C)C)c1O |
| 168 to 170 | C[Si](C)(C)c1ccc2cc3c(cc2c1)C(=O)c1ccccc1C3=O |
| 173 to 174 | CC(C)(C)OC(=O)NC1CCc2cccc(-c3ccccc3)c2CC1=O (configuration not stated) |
| 132 to 137 | COCC(=O)N(c1c(C)ccc2ccccc12)C(CCO)C(=O)OC (configuration not stated) |
| 80 to 83 | COc1ccccc1CC(c1sccc1C)N(C)C=O (configuration not stated) |
| 215 to 217 | O=C(c1ccccc1)c1nc(Br)c(Br)[nH]1 |
| 236 to 237 | Cc1ccnc(C(=O)c2[nH]c3ccc(Cl)cc3c2CC(=O)O)c1C |
